Measurements taken from ChEMBL document CHEMBL1143865, “Pyrazinoindolone inhibitors of MAPKAP-K2” (Bioorg Med Chem Lett, 2008).
Calls of active or inactive are those of the source. The rule behind the calls is not given here.

Columns and labels:
[1] = biological target: MAP kinase-activated protein kinase 2 (Homo sapiens, UniProt P49137)
THP-1 = test: Inhibition of LPS-induced TNFalpha production in human THP1 cells
[2] = biological target: T1, MAP kinase-activated protein kinase 5 (Homo sapiens) (UniProt Q8IW41); test: Inhibition of PRAK at 10 uM
T1 sequence (whole entry): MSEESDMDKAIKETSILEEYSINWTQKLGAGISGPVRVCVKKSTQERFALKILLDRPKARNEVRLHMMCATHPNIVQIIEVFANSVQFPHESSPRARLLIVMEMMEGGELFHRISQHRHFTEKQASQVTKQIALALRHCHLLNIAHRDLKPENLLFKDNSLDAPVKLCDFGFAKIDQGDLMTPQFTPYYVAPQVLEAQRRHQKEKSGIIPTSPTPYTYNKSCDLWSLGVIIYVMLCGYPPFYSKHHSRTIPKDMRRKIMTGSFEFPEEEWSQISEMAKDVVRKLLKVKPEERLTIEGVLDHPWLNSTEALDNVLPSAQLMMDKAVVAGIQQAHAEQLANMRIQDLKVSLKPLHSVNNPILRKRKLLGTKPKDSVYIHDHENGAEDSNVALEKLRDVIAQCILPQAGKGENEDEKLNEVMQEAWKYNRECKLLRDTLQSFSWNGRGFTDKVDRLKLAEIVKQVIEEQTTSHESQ

[3] = AUC (0 to infinity) in BALB/c mouse at 0.5 mg/kg, iv; type: ADME, organism-based; set-up: time infinity, dose 0.5 mg/kg, route intravenous; details: plasma
[4] = biological target: Mitogen-activated protein kinase kinase kinase 14 (Homo sapiens, UniProt Q99558); test: Inhibition of NIK
[5] = biological target: Dual specificity protein kinase CLK1 (Homo sapiens, UniProt P49759); test: Inhibition of CLK1
Chain of Dual specificity protein kinase CLK1 (P49759 whole entry): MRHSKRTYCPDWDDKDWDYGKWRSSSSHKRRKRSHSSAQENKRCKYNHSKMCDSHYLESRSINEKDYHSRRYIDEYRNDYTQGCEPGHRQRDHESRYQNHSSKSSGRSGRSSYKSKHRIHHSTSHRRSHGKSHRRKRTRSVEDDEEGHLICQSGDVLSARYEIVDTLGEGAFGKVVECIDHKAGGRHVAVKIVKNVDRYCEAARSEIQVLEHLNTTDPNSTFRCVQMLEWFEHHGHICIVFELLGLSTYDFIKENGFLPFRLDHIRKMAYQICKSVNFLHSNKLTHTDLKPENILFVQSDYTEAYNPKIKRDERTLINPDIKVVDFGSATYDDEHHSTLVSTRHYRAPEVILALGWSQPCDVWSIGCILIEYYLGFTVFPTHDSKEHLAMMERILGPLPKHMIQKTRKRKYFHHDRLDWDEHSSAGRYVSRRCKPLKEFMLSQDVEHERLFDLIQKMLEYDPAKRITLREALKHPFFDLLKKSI

[6] = biological target: T2, Mitogen-activated protein kinase 15 (Homo sapiens) (UniProt Q8TD08); test: Inhibition of ERK8 at 10 uM
T2 sequence (whole entry): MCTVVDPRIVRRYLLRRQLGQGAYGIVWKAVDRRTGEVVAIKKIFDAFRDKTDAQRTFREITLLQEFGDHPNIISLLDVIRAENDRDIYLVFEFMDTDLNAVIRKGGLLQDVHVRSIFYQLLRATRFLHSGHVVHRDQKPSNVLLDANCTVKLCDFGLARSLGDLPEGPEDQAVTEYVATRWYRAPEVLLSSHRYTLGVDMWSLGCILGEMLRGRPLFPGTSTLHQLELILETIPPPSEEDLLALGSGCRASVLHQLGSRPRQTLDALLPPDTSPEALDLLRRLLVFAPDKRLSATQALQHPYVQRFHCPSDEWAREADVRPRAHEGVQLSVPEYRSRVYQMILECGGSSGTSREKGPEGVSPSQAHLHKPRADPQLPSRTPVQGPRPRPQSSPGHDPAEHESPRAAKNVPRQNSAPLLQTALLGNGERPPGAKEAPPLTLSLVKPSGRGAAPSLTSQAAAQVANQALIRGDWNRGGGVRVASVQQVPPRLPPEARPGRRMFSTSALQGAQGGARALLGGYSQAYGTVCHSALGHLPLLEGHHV

[7] = biological target: T3, Lymphokine-activated killer T-cell-originated protein kinase (Homo sapiens) (UniProt Q96KB5); test: Inhibition of PBK at 10 uM
T3 sequence (whole entry): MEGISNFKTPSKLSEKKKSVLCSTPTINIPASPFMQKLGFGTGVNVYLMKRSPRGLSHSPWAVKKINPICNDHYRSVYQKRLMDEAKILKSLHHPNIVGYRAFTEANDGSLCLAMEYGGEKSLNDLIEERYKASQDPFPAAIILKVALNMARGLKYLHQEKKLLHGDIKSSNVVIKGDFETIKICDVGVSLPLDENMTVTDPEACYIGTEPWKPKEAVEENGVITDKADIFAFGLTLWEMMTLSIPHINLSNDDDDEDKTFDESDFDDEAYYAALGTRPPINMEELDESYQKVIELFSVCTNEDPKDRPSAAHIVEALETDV

[8] = biological target: Serine/threonine-protein kinase Chk2 (Homo sapiens) (UniProt O96017); test: Inhibition of CHK2 at 10 uM
Chain of Serine/threonine-protein kinase Chk2 (Homo sapiens) (O96017 whole entry): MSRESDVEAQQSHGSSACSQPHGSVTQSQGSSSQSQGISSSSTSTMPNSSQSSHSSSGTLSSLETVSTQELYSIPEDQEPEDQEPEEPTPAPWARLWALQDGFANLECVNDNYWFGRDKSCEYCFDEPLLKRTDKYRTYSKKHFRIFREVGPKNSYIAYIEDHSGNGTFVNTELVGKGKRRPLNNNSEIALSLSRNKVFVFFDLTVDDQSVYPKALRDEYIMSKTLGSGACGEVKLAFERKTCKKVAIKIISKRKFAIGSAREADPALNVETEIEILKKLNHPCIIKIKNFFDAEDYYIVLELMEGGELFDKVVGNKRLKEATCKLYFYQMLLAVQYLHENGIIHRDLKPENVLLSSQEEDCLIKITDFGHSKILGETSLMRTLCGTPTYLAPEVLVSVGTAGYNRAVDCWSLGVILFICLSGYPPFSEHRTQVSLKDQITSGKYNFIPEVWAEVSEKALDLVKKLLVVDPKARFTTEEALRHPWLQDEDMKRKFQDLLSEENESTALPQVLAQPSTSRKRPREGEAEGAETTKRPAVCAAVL

[9] = Inhibition of AMPK at 10 uM
[10] = biological target: Mitogen-activated protein kinase 1 (Homo sapiens, UniProt P28482); test: Inhibition of Erk2
Chain of Mitogen-activated protein kinase 1 (P28482 whole entry): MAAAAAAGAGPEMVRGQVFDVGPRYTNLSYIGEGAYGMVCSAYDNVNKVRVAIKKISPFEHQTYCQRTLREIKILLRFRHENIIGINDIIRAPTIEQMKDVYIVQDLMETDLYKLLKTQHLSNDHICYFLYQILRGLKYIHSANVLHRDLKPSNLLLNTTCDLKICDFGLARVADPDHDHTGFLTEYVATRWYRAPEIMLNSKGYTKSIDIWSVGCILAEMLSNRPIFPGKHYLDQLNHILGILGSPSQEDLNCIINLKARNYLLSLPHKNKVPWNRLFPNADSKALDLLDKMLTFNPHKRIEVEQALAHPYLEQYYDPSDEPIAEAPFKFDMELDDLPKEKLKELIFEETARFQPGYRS

[11] = Oral bioavailability in BALB/c mouse at 1.0 mg/kg; type: ADME, organism-based; details: in vivo
[12] = biological target: Dual specificity tyrosine-phosphorylation-regulated kinase 1A (Homo sapiens) (UniProt Q13627); test: Inhibition of DYRK1A at 10 uM
[13] = Inhibition of MAPKAP-K1
[14] = biological target: Rho-associated protein kinase 2 (Homo sapiens) (UniProt O75116); test: Inhibition of ROCK2 at 10 uM
Chain of Rho-associated protein kinase 2 (Homo sapiens) (O75116 whole entry, looked up): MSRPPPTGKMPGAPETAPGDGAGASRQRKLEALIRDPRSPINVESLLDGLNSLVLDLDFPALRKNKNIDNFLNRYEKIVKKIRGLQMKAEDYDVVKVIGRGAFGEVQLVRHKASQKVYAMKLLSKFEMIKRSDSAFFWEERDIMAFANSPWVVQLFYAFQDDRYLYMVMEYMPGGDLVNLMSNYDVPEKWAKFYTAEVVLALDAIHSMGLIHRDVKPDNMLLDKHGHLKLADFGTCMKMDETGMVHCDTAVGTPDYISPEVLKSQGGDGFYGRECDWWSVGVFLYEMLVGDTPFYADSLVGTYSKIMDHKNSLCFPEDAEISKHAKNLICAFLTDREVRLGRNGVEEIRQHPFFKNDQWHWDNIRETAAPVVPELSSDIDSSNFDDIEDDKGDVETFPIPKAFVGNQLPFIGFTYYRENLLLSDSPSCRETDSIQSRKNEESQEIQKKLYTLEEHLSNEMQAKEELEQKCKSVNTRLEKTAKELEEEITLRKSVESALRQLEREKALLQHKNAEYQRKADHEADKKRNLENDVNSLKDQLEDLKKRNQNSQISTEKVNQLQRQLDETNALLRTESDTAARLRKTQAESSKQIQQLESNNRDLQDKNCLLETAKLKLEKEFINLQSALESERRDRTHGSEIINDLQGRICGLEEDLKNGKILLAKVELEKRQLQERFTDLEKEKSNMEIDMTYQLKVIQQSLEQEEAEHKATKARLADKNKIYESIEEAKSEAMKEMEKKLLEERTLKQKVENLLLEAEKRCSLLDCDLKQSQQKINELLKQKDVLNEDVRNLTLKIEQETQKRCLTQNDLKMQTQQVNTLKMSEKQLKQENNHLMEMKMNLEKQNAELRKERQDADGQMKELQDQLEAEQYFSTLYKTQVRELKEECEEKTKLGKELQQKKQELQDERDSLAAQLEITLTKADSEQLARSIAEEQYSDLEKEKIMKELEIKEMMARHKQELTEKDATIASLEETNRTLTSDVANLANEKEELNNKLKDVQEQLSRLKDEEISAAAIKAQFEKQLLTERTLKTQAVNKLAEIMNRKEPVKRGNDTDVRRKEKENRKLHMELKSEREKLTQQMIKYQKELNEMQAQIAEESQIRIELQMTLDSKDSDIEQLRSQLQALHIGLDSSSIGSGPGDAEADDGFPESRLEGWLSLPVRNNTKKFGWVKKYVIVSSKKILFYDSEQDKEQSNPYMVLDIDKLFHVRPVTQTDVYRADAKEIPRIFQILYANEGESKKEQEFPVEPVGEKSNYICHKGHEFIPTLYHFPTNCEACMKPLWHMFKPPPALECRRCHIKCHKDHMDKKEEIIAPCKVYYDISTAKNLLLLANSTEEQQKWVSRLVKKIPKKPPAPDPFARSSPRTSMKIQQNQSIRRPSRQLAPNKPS

[15] = biological target: T4, Serine/threonine-protein kinase 3 (Homo sapiens) (UniProt Q13188); test: Inhibition of MST2 at 10 uM
T4 sequence (whole entry): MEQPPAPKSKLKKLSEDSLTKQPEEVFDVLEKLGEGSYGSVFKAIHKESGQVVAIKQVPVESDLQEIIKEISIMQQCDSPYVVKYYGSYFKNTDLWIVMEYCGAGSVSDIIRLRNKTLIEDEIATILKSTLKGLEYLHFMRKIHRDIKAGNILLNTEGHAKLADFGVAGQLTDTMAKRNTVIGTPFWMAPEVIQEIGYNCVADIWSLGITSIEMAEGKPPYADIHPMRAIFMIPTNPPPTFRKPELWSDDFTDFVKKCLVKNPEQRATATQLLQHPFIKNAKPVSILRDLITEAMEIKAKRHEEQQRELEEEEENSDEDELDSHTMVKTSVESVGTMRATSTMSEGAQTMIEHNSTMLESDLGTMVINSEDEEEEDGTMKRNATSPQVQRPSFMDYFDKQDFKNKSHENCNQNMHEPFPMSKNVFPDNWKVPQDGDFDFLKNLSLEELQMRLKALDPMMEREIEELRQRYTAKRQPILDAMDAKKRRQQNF

[16] = biological target: 3-phosphoinositide-dependent protein kinase 1 (Homo sapiens) (UniProt O15530); test: Inhibition of PDK1 at 10 uM
Chain of 3-phosphoinositide-dependent protein kinase 1 (Homo sapiens) (O15530 whole entry, looked up): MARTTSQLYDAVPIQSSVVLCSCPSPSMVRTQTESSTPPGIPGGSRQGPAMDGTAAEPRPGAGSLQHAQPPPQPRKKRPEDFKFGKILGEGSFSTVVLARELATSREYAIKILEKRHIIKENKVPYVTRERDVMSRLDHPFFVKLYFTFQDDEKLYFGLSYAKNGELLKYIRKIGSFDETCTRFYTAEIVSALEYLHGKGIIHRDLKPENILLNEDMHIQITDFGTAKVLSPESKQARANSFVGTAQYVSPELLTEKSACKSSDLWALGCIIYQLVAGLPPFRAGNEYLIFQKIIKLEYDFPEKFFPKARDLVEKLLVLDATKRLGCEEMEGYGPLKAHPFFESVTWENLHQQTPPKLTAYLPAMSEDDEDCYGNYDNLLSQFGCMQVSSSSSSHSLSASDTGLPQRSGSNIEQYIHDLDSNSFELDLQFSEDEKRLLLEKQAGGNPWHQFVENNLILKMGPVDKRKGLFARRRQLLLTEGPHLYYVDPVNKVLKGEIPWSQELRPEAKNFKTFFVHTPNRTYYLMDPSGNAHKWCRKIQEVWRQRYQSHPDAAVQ

[17] = biological target: SRSF protein kinase 1 (Homo sapiens) (UniProt Q96SB4); test: Inhibition of SRPK1 at 10 uM
Chain of SRSF protein kinase 1 (Homo sapiens) (Q96SB4 whole entry): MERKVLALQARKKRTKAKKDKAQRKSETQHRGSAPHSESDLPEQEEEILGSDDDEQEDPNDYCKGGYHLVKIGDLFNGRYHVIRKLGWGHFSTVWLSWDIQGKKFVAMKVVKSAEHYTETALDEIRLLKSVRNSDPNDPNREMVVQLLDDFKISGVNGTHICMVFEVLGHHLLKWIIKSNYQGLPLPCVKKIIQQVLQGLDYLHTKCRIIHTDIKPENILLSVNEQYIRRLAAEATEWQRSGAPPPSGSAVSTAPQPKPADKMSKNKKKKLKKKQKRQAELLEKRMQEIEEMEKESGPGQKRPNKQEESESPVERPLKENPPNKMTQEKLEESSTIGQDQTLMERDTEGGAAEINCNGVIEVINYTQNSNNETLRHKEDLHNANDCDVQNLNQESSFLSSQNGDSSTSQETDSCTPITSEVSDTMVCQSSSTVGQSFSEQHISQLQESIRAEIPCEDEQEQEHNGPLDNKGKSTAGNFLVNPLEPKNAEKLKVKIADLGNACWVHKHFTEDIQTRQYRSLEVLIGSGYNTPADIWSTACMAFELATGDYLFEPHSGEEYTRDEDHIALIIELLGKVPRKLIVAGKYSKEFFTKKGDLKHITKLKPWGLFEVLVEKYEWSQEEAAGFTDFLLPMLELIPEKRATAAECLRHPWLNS

Mus musculus [18] = test: Clearance in BALB/c mouse at 0.5 mg/kg, iv expressed as %Q; type: ADME, organism-based; set-up: dose 0.5 mg/kg, route intravenous; details: in vivo
[19] = Cmax in BALB/c mouse at 1.0 mg/kg, po; type: ADME, organism-based; set-up: dose 1 mg/kg, route oral; details: in vivo
[20] = biological target: Glycogen synthase kinase-3 beta (Homo sapiens, UniProt P49841); test: Inhibition of GSK3-beta
Chain of Glycogen synthase kinase-3 beta (P49841 whole entry): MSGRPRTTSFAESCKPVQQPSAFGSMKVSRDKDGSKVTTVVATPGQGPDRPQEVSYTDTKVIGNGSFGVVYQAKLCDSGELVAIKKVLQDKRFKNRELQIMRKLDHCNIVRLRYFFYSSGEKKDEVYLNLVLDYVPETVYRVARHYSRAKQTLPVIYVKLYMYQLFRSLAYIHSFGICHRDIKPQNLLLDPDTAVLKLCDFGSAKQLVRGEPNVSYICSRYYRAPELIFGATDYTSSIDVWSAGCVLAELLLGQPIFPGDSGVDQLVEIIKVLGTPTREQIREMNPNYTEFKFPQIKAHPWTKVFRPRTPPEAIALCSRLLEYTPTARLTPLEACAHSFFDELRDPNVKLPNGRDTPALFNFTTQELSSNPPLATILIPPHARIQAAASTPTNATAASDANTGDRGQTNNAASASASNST

[21] = AUC (0 to infinity) in BALB/c mouse at 1.0 mg/kg, po; type: ADME, organism-based; set-up: time infinity, dose 1 mg/kg, route oral; details: plasma
[22] = Inhibition of MNK2alpha at 10 uM
[23] = Solubility at pH 7.4; type: physicochemical; details: buffer
[24] = Mean retention time in BALB/c mouse at 0.5 mg/kg, iv; type: ADME, organism-based; set-up: dose 0.5 mg/kg, route intravenous; details: in vivo
[25] = Drug level in mouse plasma at 60 mg/kg, po after 90 mins; type: ADME, organism-based; set-up: dose 60 mg/kg, route oral
Mus musculus [26] = test: Inhibition of LPS-stimulated TNFalpha production in mouse at 60 mg/kg, po; type: functional, organism-based; set-up: dose 60 mg/kg

Chain of MAP kinase-activated protein kinase 2 (P49137 whole entry): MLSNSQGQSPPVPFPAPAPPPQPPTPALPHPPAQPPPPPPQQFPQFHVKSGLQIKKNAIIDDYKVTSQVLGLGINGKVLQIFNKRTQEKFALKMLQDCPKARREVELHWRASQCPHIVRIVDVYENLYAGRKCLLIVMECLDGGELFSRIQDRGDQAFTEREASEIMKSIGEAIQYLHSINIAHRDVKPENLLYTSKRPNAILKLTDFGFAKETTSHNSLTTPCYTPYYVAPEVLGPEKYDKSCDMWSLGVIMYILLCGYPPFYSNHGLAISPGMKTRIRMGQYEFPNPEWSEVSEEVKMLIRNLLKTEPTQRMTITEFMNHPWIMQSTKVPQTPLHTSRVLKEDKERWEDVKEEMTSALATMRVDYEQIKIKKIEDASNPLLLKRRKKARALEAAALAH

CC1CCC(NC(=O)c2csc(NC(=O)c3ccc4cc5n(c4c3)C(C)CNC5=O)n2)CC1 (stereo unspecified)
IC50 [1]: 0.045 µM
IC50 (THP-1): 1.8 µM

CC(C)(C)CN1CCC(NC(=O)c2csc(NC(=O)c3ccc4cc5n(c4c3)C(C)(C)CNC5=O)n2)CC1
IC50 (THP-1): 0.43 µM

CC(C)(C)CN1CCC(NC(=O)c2csc(NC(=O)c3ccc4cc5n(c4c3)C3(CCC3)CNC5=O)n2)CC1
inhibition [2]: 98%
AUC(0-inf) [3]: 165 ng·h/mL
IC50 [4]: 0.48 µM
IC50 [5]: 0.093 µM
inhibition [6]: 82%
inhibition [7]: 75%
inhibition [8]: 84%
inhibition [9]: 98%
IC50 [10]: > 3 µM
bioavailability [11]: > 100%
inhibition [12]: 94%
IC50 [13]: 0.025 µM
inhibition [14]: 63%
inhibition [15]: 86%
inhibition [16]: 92%
inhibition [17]: 60%
CL(%Q) (Mus musculus [18]): 30%
Cmax [19]: 60 nM
IC50 [20]: 0.92 µM
AUC(0-inf) [21]: 446 ng·h/mL
IC50 (THP-1): 0.3 µM
inhibition [22]: 80%
solubility [23]: > 96 µg/mL
MRT [24]: 6.1 h

CC1(C)CNC(=O)c2cc3ccc(C(=O)Nc4nc(C(=O)NC5CCN(Cc6ccccc6)CC5)cs4)cc3n21
IC50 (THP-1): 0.9 µM

CC1CNC(=O)c2cc3ccc(C(=O)Nc4nc(C(=O)NCC(C)(C)C)cs4)cc3n21 (stereo unspecified)
IC50 [1]: 0.046 µM
IC50 (THP-1): 2.7 µM

CN1CCC(NC(=O)c2csc(NC(=O)c3ccc4cc5n(c4c3)C(C)(C)CNC5=O)n2)CC1
IC50 (THP-1): 2.4 µM

CC1CNC(=O)c2cc3ccc(C(=O)Nc4nc(C(=O)NC5CCOCC5)cs4)cc3n21 (stereo unspecified)
IC50 [1]: 0.012 µM
IC50 (THP-1): 5.8 µM

CC1CNC(=O)c2cc3ccc(C(=O)Nc4nc(C(=O)NC5CCN(CC(C)(C)C)CC5)cs4)cc3n21 (stereo unspecified)
concentration at 1.5 h [25]: 690 nM
Activity (Mus musculus [26]): inactive
IC50 (THP-1): 0.735 µM
solubility [23]: > 30 µg/mL

O=C(Nc1nc(C(=O)NC2CCN(Cc3ccccc3)CC2)cs1)c1ccc2cc3n(c2c1)C1(CCC1)CNC3=O
IC50 (THP-1): 0.52 µM

CN1CCC(NC(=O)c2csc(NC(=O)c3ccc4cc5n(c4c3)C3(CCC3)CNC5=O)n2)CC1
IC50 (THP-1): 1.7 µM

CC1CNC(=O)c2cc3ccc(C(=O)Nc4nc(C(=O)NC5CCN(C)CC5)cs4)cc3n21 (stereo unspecified)
IC50 (THP-1): > 5 µM

CC(C)CN1CCC(NC(=O)c2csc(NC(=O)c3ccc4cc5n(c4c3)C(C)CNC5=O)n2)CC1 (stereo unspecified)
IC50 (THP-1): 1.67 µM
solubility [23]: > 30 µg/mL

CCN1CCC(NC(=O)c2csc(NC(=O)c3ccc4cc5n(c4c3)C(C)CNC5=O)n2)CC1 (stereo unspecified)
IC50 [1]: 0.007 µM
IC50 (THP-1): 8.9 µM
solubility [23]: > 30 µg/mL

CC1(C)CNC(=O)c2cc3ccc(C(=O)Nc4nc(C(=O)NC5CCCCC5)cs4)cc3n21
IC50 [1]: 0.019 µM
IC50 (THP-1): 1 µM

CC1CNC(=O)c2cc3ccc(C(=O)Nc4nc(C(=O)NC5CCN(Cc6ccccc6)CC5)cs4)cc3n21 (stereo unspecified)
IC50 (THP-1): 1.6 µM
solubility [23]: > 30 µg/mL

CC1CNC(=O)c2cc3ccc(C(=O)Nc4nc(C(=O)NC5CCCCC5)cs4)cc3n21 (stereo unspecified)
AUC(0-inf) [3]: 535 ng·h/mL
IC50 [1]: 0.02 µM
bioavailability [11]: 11%
CL(%Q) (Mus musculus [18]): 18%
Cmax [19]: 80 nM
AUC(0-inf) [21]: 115 ng·h/mL
IC50 (THP-1): 1.4 µM
solubility [23]: < 0.1 µg/mL
MRT [24]: 2 h

CC1CNC(=O)c2[nH]c3ccc(C(=O)Nc4nc(C(=O)NC5CCCCC5)cs4)cc3c21 (stereo unspecified)
AUC(0-inf) [3]: 525 ng·h/mL
bioavailability [11]: 8%
CL(%Q) (Mus musculus [18]): 18%
Cmax [19]: 60 nM
AUC(0-inf) [21]: 88 ng·h/mL
solubility [23]: < 0.1 µg/mL
MRT [24]: 0.8 h

CC1CNC(=O)c2[nH]c3ccc(C(=O)Nc4nc(C(=O)NC5CCN(C)CC5)cs4)cc3c21 (stereo unspecified)
IC50 (THP-1): > 5 µM
